Source: PubChem BioAssay (NCI)
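48-hour exposure; five concentrations; linearly interpolated endpoints. At the TGI there is no net growth.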

Tests used:
Assay in all cases: growth of human tumour cells (NCI), 48 h
[1] = system: SF-295 CNS
[2] = system: M14 melanoma
[3] = system: PC-3 prostate
[4] = system: MDA-MB-435
[5] = system: SF-539 CNS
[6] = system: OVCAR-3 ovarian
[7] = system: HL-60(TB) leukemia
[8] = system: UACC-62 melanoma
[9] = system: KM12 colon
[10] = system: T-47D breast
[11] = system: 786-0 renal
[12] = system: SW-620 colon
[13] = system: HCT-15 colon
[14] = system: A498 renal
[15] = system: NCI/ADR-RES ovarian
[16] = system: UACC-257 melanoma
[17] = system: HCT-116 colon
[18] = system: HOP-62 NSCLC
[19] = system: SK-MEL-5 melanoma
[20] = system: LOX IMVI melanoma
[21] = system: BT-549 breast
[22] = system: IGROV1 ovarian
[23] = system: SK-MEL-28 melanoma
[24] = system: SNB-75 CNS
[25] = system: NCI-H23 lung
[26] = system: CCRF-CEM leukemia
[27] = system: RXF 393 renal
[28] = system: COLO 205 colon
[29] = system: SNB-19 CNS
[30] = system: DU-145 prostate
[31] = system: SN12C renal
[32] = system: TK-10 renal
[33] = system: RPMI-8226 leukemia
[34] = system: HOP-92 NSCLC
[35] = system: NCI-H522 lung
[36] = system: K-562 leukemia
[37] = system: MDA-N
[38] = system: SK-OV-3 ovarian
[39] = system: EKVX NSCLC
[40] = system: NCI-H460 lung
[41] = system: UO-31 renal
[42] = system: A549 NSCLC
[43] = system: MALME-3M melanoma
[44] = system: NCI-H226 lung
[45] = system: MCF7 breast
[46] = system: SK-MEL-2 melanoma
[47] = system: SF-268 CNS
[48] = system: HS 578T breast
[49] = system: OVCAR-4 ovarian
[50] = system: OVCAR-8 ovarian
[51] = system: OVCAR-5 ovarian
[52] = system: MDA-MB-231 breast
[53] = system: U251 CNS
[54] = system: MOLT-4 leukemia
[55] = system: HT29 colon
[56] = system: HCC-2998 colon
[57] = system: CAKI-1 renal
[58] = system: ACHN renal

Question: `c1ccc2c(c1)Oc1cccc3cccc-2c13` was tested. Which TGI [1] did it give?
Answer: > 100 µM

Question: And the TGI [2]?
Answer: > 100 µM

Question: What about the TGI [3] of the same compound?
Answer: > 100 µM

Question: And the TGI [4]?
Answer: > 100 µM

Question: And the TGI [5]?
Answer: > 100 µM

Question: What about the TGI [6] of the same compound?
Answer: > 100 µM

Question: What about the TGI [7] of the same compound?
Answer: > 100 µM

Question: What about the TGI [8] of the same compound?
Answer: > 100 µM

Question: What about the TGI [9] of the same compound?
Answer: > 100 µM

Question: What about the TGI [10] of the same compound?
Answer: > 100 µM

Question: And the TGI [11]?
Answer: > 100 µM

Question: What about the TGI [12] of the same compound?
Answer: > 100 µM

Question: And the TGI [13]?
Answer: > 100 µM

Question: What about the TGI [14] of the same compound?
Answer: > 100 µM

Question: And the TGI [15]?
Answer: > 100 µM

Question: What about the TGI [16] of the same compound?
Answer: > 100 µM

Question: And the TGI [17]?
Answer: > 100 µM

Question: And the TGI [18]?
Answer: > 100 µM

Question: What about the TGI [19] of the same compound?
Answer: > 100 µM

Question: What about the TGI [20] of the same compound?
Answer: > 100 µM

Question: And the TGI [21]?
Answer: > 100 µM

Question: What about the TGI [22] of the same compound?
Answer: > 100 µM

Question: And the TGI [23]?
Answer: > 100 µM

Question: What about the TGI [24] of the same compound?
Answer: > 100 µM

Question: And the TGI [25]?
Answer: > 100 µM

Question: And the TGI [26]?
Answer: > 100 µM

Question: What about the TGI [27] of the same compound?
Answer: > 100 µM

Question: And the TGI [28]?
Answer: > 100 µM

Question: What about the TGI [29] of the same compound?
Answer: > 100 µM

Question: And the TGI [30]?
Answer: > 100 µM

Question: What about the TGI [31] of the same compound?
Answer: > 100 µM

Question: And the TGI [32]?
Answer: > 100 µM

Question: What about the TGI [33] of the same compound?
Answer: > 100 µM

Question: And the TGI [34]?
Answer: > 100 µM

Question: What about the TGI [35] of the same compound?
Answer: > 100 µM

Question: What about the TGI [36] of the same compound?
Answer: > 100 µM

Question: What about the TGI [37] of the same compound?
Answer: > 100 µM

Question: What about the TGI [38] of the same compound?
Answer: > 100 µM

Question: And the TGI [39]?
Answer: > 100 µM

Question: What about the TGI [40] of the same compound?
Answer: > 100 µM

Question: And the TGI [41]?
Answer: > 100 µM

Question: And the TGI [42]?
Answer: > 100 µM

Question: And the TGI [43]?
Answer: > 100 µM

Question: What about the TGI [44] of the same compound?
Answer: > 100 µM

Question: What about the TGI [45] of the same compound?
Answer: > 100 µM

Question: And the TGI [46]?
Answer: > 100 µM

Question: What about the TGI [47] of the same compound?
Answer: > 100 µM

Question: And the TGI [48]?
Answer: > 100 µM

Question: And the TGI [49]?
Answer: > 100 µM

Question: What about the TGI [50] of the same compound?
Answer: > 100 µM

Question: What about the TGI [51] of the same compound?
Answer: > 100 µM

Question: What about the TGI [52] of the same compound?
Answer: > 100 µM

Question: And the TGI [53]?
Answer: > 100 µM

Question: What about the TGI [54] of the same compound?
Answer: > 100 µM

Question: What about the TGI [55] of the same compound?
Answer: > 100 µM

Question: What about the TGI [56] of the same compound?
Answer: > 100 µM

Question: What about the TGI [57] of the same compound?
Answer: > 100 µM

Question: What about the TGI [58] of the same compound?
Answer: > 100 µM

Question: With `Nc1nc(Cl)c(N=Nc2ccc(Cl)cc2)c(NCC2(CO)CCC(CCc3ccccc3)C2)n1` (stereo unspecified) as the compound, how does the TGI [1] read?
Answer: 25.7 µM

Question: What about the TGI [2] of the same compound?
Answer: 31.5 µM

Question: What about the TGI [3] of the same compound?
Answer: 25.8 µM

Question: What about the TGI [4] of the same compound?
Answer: 23.7 µM

Question: What about the TGI [5] of the same compound?
Answer: 34.5 µM

Question: What about the TGI [6] of the same compound?
Answer: 23.6 µM

Question: What about the TGI [7] of the same compound?
Answer: 20.9 µM

Question: And the TGI [8]?
Answer: 22.1 µM

Question: And the TGI [9]?
Answer: 26.9 µM

Question: What about the TGI [10] of the same compound?
Answer: 32.2 µM

Question: What about the TGI [11] of the same compound?
Answer: 21.6 µM

Question: What about the TGI [12] of the same compound?
Answer: 17 µM

Question: And the TGI [13]?
Answer: 24.7 µM

Question: What about the TGI [14] of the same compound?
Answer: 27.3 µM

Question: And the TGI [15]?
Answer: 34.4 µM

Question: What about the TGI [16] of the same compound?
Answer: 25.1 µM

Question: What about the TGI [17] of the same compound?
Answer: 20.2 µM

Question: What about the TGI [18] of the same compound?
Answer: 28.1 µM

Question: And the TGI [19]?
Answer: 13.6 µM

Question: What about the TGI [20] of the same compound?
Answer: 4.59 µM

Question: What about the TGI [21] of the same compound?
Answer: 23.4 µM

Question: What about the TGI [22] of the same compound?
Answer: 23.4 µM

Question: What about the TGI [23] of the same compound?
Answer: 35.3 µM

Question: And the TGI [24]?
Answer: 28 µM

Question: And the TGI [25]?
Answer: 15.6 µM

Question: What about the TGI [26] of the same compound?
Answer: 8.84 µM

Question: And the TGI [27]?
Answer: 22.2 µM

Question: What about the TGI [28] of the same compound?
Answer: 19.4 µM

Question: And the TGI [29]?
Answer: 48.7 µM

Question: And the TGI [30]?
Answer: 25.9 µM

Question: What about the TGI [31] of the same compound?
Answer: 30.2 µM

Question: And the TGI [32]?
Answer: 27.5 µM

Question: What about the TGI [33] of the same compound?
Answer: 32.9 µM

Question: What about the TGI [34] of the same compound?
Answer: 29.3 µM

Question: What about the TGI [35] of the same compound?
Answer: 5.42 µM

Question: And the TGI [36]?
Answer: 9.78 µM

Question: And the TGI [37]?
Answer: 30.2 µM

Question: And the TGI [38]?
Answer: 26.1 µM

Question: What about the TGI [39] of the same compound?
Answer: 28.3 µM

Question: And the TGI [40]?
Answer: 30.6 µM

Question: What about the TGI [41] of the same compound?
Answer: 4.31 µM

Question: And the TGI [42]?
Answer: 51.7 µM

Question: And the TGI [43]?
Answer: 51 µM

Question: And the TGI [44]?
Answer: 19.4 µM

Question: And the TGI [45]?
Answer: 19.5 µM

Question: What about the TGI [46] of the same compound?
Answer: 33.5 µM

Question: What about the TGI [47] of the same compound?
Answer: 33.4 µM

Question: What about the TGI [48] of the same compound?
Answer: > 55.3 µM

Question: And the TGI [49]?
Answer: 10.6 µM

Question: And the TGI [50]?
Answer: 19.3 µM

Question: And the TGI [51]?
Answer: 31.3 µM

Question: And the TGI [52]?
Answer: 31.2 µM

Question: What about the TGI [53] of the same compound?
Answer: 31.2 µM

Question: What about the TGI [54] of the same compound?
Answer: 8.49 µM

Question: And the TGI [55]?
Answer: 30.4 µM

Question: What about the TGI [56] of the same compound?
Answer: 17.3 µM

Question: What about the TGI [57] of the same compound?
Answer: 13.5 µM

Question: What about the TGI [58] of the same compound?
Answer: 19.9 µM
